Test system: gene expression in D04 melanoma cells
Assay: RNA-Seq differential expression analysis (DESeq2)
Assay type: cell-based, human
Settings: up-regulated list
Protocol: Total RNA was isolated using the RNeasy mini Kit (QIAGEN) following the manufacturer's protocol. Quality check for extracted RNA was done using 2100 Bioanalyzer (Agilent Technologies, USA) or Tapestation System (Agilent Technologies, USA). […] For samples used for identification of MAPK-responsive lncRNAs, paired-end, 101-bp sequencing was performed by Centrillion Genomic Services (Centrillion Biosciences, USA) on an Illumina HiSeq 2000. For DE gene analysis of ASO-transfected D04 samples, paired-end, 2×150-bp sequencing was performed by Genewiz (USA) on a Illumina HiSeq.
Sequence reads were aligned to the human genome (hg19) using TopHat (Version 2.0.11).
Differential expression (DE) analysis was done using DESeq2. Differentially expressed genes were defined by more than 1.5-fold changes (log 2 >0.58 or <−0.58) in expression with FDR<0.05. GO term analysis was done using DAVID Functional Annotation Clustering analysis.
To examine the biomolecular changes upon TRASH-inhibition in melanoma, D04 cells were treated with TRASH-ASOs (SEQ ID NO:15) and Control-ASOs and RNA was extracted and used for RNA-Seq. […] These GO terms consisted of genes encoding growth factors, tyrosine kinases, G protein coupled receptor subunits, and collagen subunits. Scatter plot diagram showing differential gene expression after TRASH-ASO treatment compared to Control-ASO treatment. (cut-off for significance was adjusted p-value <0.05). Data was obtained from RNA-Seq of D04 melanoma cells, treatment period was three days. (FIG. 5c)

Sequence: GACTGGAGATAATTAA (gapmer, pattern not given here) [SEQ ID NO: 15, GapmeR ASO targeting AC004540.4 (TRASH), exon region of both isoforms; used for in vitro experiments]
- log2FoldChange CSRNP1 (ENSG00000144655): 0.6637
- log2FoldChange MYH15 (ENSG00000144821): 1.163
- log2FoldChange PHLDB2 (ENSG00000144824): 0.8277
- log2FoldChange EAF2 (ENSG00000145088): 0.8471
- log2FoldChange ECE2 (ENSG00000145194): 0.8019
- log2FoldChange DDIT4L (ENSG00000145358): 0.9547
- log2FoldChange GFOD1 (ENSG00000145990): 0.6187
- log2FoldChange TRIM7 (ENSG00000146054): 0.7787
- log2FoldChange PM20D2 (ENSG00000146281): 0.6289
- log2FoldChange EGFR (ENSG00000146648): 0.8305
- log2FoldChange GCNA (ENSG00000147174): 0.8797
- log2FoldChange MAL2 (ENSG00000147676): 0.6498
- log2FoldChange RGS10 (ENSG00000148908): 0.5971
- log2FoldChange ST14 (ENSG00000149418): 1.17
- log2FoldChange PDCD4 (ENSG00000150593): 0.586
- log2FoldChange IL18 (ENSG00000150782): 0.6212
- log2FoldChange NOCT (ENSG00000151014): 0.6791
- log2FoldChange JMY (ENSG00000152409): 0.9323
- log2FoldChange NR4A2 (ENSG00000153234): 0.7664
- log2FoldChange CCDC148 (ENSG00000153237): 0.745
- log2FoldChange FAM167A (ENSG00000154319): 0.6771
- log2FoldChange LY96 (ENSG00000154589): 0.6345
- log2FoldChange HKDC1 (ENSG00000156510): 0.717
- log2FoldChange CD109 (ENSG00000156535): 0.6418
- log2FoldChange NRG1 (ENSG00000157168): 0.8358
- log2FoldChange WDR66 (ENSG00000158023): 1.174
- log2FoldChange TPRG1L (ENSG00000158109): 0.6032
- log2FoldChange XDH (ENSG00000158125): 0.6451
- log2FoldChange GDPD5 (ENSG00000158555): 0.6005
- log2FoldChange LAD1 (ENSG00000159166): 1.038
- log2FoldChange STC1 (ENSG00000159167): 0.8653
- log2FoldChange KLHL21 (ENSG00000162413): 0.8059
- log2FoldChange FBLIM1 (ENSG00000162458): 0.7967
- log2FoldChange ATF3 (ENSG00000162772): 0.6827
- log2FoldChange COQ8A (ENSG00000163050): 0.9489
- log2FoldChange CRYGC (ENSG00000163254): 1.014
- log2FoldChange PAQR3 (ENSG00000163291): 0.7134
- log2FoldChange KBTBD8 (ENSG00000163376): 1.017
- log2FoldChange IGFN1 (ENSG00000163395): 1.134
- log2FoldChange NKX6-1 (ENSG00000163623): 1.147
- log2FoldChange PLB1 (ENSG00000163803): 0.8869
- log2FoldChange LZTFL1 (ENSG00000163818): 0.6384
- log2FoldChange RAET1E (ENSG00000164520): 1.147
- log2FoldChange DAGLB (ENSG00000164535): 0.608
- log2FoldChange GPR85 (ENSG00000164604): 0.7923
- log2FoldChange SUN3 (ENSG00000164744): 0.9518
- log2FoldChange EN2 (ENSG00000164778): 1.028
- log2FoldChange FRAT1 (ENSG00000165879): 0.9146
- log2FoldChange GPR176 (ENSG00000166073): 0.7841
- log2FoldChange SVOP (ENSG00000166111): 1.178
- log2FoldChange C16orf71 (ENSG00000166246): 0.7026
- log2FoldChange C16orf46 (ENSG00000166455): 0.9764
- log2FoldChange GREM1 (ENSG00000166923): 1.047
- log2FoldChange CD3D (ENSG00000167286): 0.767
- log2FoldChange AXL (ENSG00000167601): 0.7701
- log2FoldChange DNAAF3 (ENSG00000167646): 0.6547
- log2FoldChange SERPINF2 (ENSG00000167711): 1.036
- log2FoldChange KRT80 (ENSG00000167767): 0.6697
- log2FoldChange ABCA3 (ENSG00000167972): 0.8489
- log2FoldChange CAVIN2 (ENSG00000168497): 1.053
- log2FoldChange IL12A (ENSG00000168811): 0.635
- log2FoldChange C8orf46 (ENSG00000169085): 0.7557
- log2FoldChange HSPB3 (ENSG00000169271): 0.6385
- log2FoldChange ZNF280A (ENSG00000169548): 0.9372
- log2FoldChange MT1E (ENSG00000169715): 0.8998
- log2FoldChange MZB1 (ENSG00000170476): 1.158
- log2FoldChange S1PR1 (ENSG00000170989): 0.6805
- log2FoldChange XAGE3 (ENSG00000171402): 0.6996
- log2FoldChange ZNF57 (ENSG00000171970): 0.6499
- log2FoldChange NIPAL4 (ENSG00000172548): 1.166
- log2FoldChange MUC13 (ENSG00000173702): 1.042
- log2FoldChange GOLT1A (ENSG00000174567): 0.9754
- log2FoldChange C11orf68 (ENSG00000175573): 0.673
- log2FoldChange TSPEAR (ENSG00000175894): 0.9662
- log2FoldChange ENTHD1 (ENSG00000176177): 0.5983
- log2FoldChange ZNF843 (ENSG00000176723): 0.9407
- log2FoldChange RIMKLA (ENSG00000177181): 0.711
- log2FoldChange JUN (ENSG00000177606): 0.715
- log2FoldChange ZNF619 (ENSG00000177873): 0.5884
- log2FoldChange ZNF114 (ENSG00000178150): 0.8507
- log2FoldChange KCTD12 (ENSG00000178695): 0.7298
- log2FoldChange FJX1 (ENSG00000179431): 0.6535
- log2FoldChange PLD6 (ENSG00000179598): 0.696
- log2FoldChange WDR97 (ENSG00000179698): 0.7195
- log2FoldChange B3GNT3 (ENSG00000179913): 0.7904
- log2FoldChange ANKRD18A (ENSG00000180071): 0.7649
- log2FoldChange OXTR (ENSG00000180914): 1.093
